This note sets out measurements from patent US12435051B2, “Dual modulator of mGluR5 and 5-HT2A receptor, and use thereof” (Vivozon Inc., priority 2020, dated 2025).

One assay deals with T1, human 5-HT2AR (Homo sapiens, UniProt P28223).
T1 construct: expressed in transfected cells; host or cells: HEK293
Briefly: HTRF-based IP1 accumulation assay (5-HT2AR antagonistic effect). Conditions: HEK293 cells overexpressing human 5-HT2AR; serotonin at EC80. The format is cell-based. The procedure: The 5-HT2AR antagonistic effect of the test compounds was confirmed by measuring the production amount of IP1 using the HEK293 cell line permanently overexpressing the human 5-HT2AR. The test compounds were dissolved in 100% DMSO to a final concentration of 10 mM. The starting concentration of 10 μM was prepared from the stock solution, followed by serial dilutions to prepare working solutions in a buffer containing lithium chloride (LiCl). The cells and compounds prepared in the test buffer were placed in a 96-well plate and incubated at room temperature for 10 minutes. Serotonin of EC80 concentration was added, followed by incubation at 37° C. for 30 minutes in a light-shielding state. To measure IP1 accumulation in cells, JP1-d2 acceptor and IP1-Cryptate donor-which are HTRF-based substances for fluorescence signals-were added and incubated for 1 hour at room temperature in a light-shielded state. The fluorescent emission signals of acceptor and donor were detected, and HTRF ratio values were substracted by mean value of serotonin control. The percentage of activation was calculated by normalization of the serotonin control (0%) and IP1 control (100%). The IC50 values of the test compounds are represented in Table 1. (+: 1,000-2,000 nM, ++: 500-1,000 nM, +++: 100-500 nM, ++++: less than 100 nM).
Background: In TR-FRET formats the signal depends on donor and acceptor labels being close together.

The target of the next assay is T2, mGluR5 (Homo sapiens, UniProt P41594).
T2 construct: expressed in transfected cells; host or cells: HEK293
Briefly: Fluorescence-based Ca2+ mobilization assay. The format is cell-based. Conditions: HEK293 cells overexpressing mGluR5; L-glutamate at EC80. The procedure: In order to measure the activity on the mGluR5, an experiment was carried out to check the change in the intracellular Ca^2+ level using the HEK293 cell line permanently overexpressing the mGluR5. The cells in the cell culture medium were aliquoted into a 384-well plate coated with poly-D-lysine and cultured in a 37° C. incubator supplied with 5% CO2. The next day, the medium was removed and a dye loading buffer—in which a reagent capable of measuring Ca^2+ was dissolved—was added, and then incubated at 37° C. for 60 minutes. The test compounds were dissolved in 100% DMSO at a final concentration of 10 mM to make a stock solution. The starting concentration of […] was prepared from the stock solution, followed by serial dilutions to prepare working solutions (test compound working solutions). The test compound working solutions were added to the cells that were incubated in the dye loading buffer, which were maintained for 30 minutes at room temperature in a light-shielding state before measurement. The Ca^2+ level change induced by L-glutamate at EC80 concentration was measured for 2 minutes using FLIPR Tetra (MDS Analytical Technologies). The fluorescent Ca^2+ signal values in the presence of the test compounds were normalized to the fluorescent signal elicited by […] concentration of L-glutamate as 100% and that elicited by vehicle as 0% to estimate % inhibition of the test compounds. The efficacy of the test compounds was calculated as IC50 values and represented in Table 1. (+: 1,000-2,000 nM, ++: 500-1,000 nM, +++: 100-500 nM, ++++: less than 100 nM).
On the technique in general: Calcium flux is commonly read through the fluorescence of an indicator in the cells.

A value given as a limit tells only on which side of the number the result lay.

A word on the IC50: it is the concentration that inhibits the measured activity by half. Low readings indicate higher potency, high ones lower potency.

T1 sequence (P28223 whole entry): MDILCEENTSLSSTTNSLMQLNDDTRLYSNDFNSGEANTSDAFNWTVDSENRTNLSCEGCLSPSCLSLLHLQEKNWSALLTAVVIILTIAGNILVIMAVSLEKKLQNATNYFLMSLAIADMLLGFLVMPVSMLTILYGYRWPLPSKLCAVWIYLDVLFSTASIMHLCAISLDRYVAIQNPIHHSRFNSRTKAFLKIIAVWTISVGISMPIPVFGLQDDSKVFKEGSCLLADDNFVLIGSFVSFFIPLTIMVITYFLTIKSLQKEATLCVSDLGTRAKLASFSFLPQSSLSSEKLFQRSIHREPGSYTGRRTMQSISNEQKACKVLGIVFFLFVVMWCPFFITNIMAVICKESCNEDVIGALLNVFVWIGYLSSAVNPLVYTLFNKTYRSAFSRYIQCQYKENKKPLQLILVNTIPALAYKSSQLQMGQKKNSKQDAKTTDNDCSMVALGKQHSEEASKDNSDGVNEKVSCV
T2 sequence (P41594 21-1212): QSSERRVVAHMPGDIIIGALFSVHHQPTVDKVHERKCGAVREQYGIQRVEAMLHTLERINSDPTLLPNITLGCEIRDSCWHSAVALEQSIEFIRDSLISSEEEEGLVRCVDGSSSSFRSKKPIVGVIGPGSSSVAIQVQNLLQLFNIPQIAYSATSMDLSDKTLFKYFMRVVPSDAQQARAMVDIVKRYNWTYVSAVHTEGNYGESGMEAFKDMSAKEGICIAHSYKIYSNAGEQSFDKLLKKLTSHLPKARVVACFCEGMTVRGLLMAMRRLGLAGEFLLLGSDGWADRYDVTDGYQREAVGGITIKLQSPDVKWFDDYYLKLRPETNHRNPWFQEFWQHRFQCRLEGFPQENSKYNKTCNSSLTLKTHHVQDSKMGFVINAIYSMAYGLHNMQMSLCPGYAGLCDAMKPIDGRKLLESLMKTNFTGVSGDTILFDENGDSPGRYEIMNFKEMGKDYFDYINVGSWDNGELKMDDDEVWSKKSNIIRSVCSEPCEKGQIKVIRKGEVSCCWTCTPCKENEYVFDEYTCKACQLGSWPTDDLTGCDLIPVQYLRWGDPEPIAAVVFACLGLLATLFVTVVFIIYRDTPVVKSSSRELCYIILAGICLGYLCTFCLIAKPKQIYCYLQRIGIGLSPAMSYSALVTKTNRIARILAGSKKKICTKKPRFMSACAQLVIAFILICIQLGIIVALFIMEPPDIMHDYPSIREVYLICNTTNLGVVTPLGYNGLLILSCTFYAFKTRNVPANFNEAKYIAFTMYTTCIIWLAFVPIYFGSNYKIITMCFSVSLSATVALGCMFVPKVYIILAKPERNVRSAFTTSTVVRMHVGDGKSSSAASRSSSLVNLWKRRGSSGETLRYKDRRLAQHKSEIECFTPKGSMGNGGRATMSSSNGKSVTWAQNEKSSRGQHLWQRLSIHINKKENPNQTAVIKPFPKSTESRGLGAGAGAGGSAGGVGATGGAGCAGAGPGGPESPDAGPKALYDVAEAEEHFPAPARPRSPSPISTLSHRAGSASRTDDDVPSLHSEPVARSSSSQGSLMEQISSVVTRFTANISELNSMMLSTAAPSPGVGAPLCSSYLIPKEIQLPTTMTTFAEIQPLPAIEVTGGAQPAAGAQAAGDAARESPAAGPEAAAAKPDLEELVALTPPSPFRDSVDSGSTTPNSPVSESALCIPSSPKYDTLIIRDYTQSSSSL

As to `O=C(NCC1(CF)CCOCC1)c1ccc(C#Cc2ccccc2F)cc1` [Example 50, N-((4-(fluoromethyl)tetrahydro-2H-pyran-4-yl)methyl)-4-((2-fluorophenyl)ethynyl)benzamide], the half-maximal inhibitory concentration (IC50) was 500 to 1000 nM on human 5-HT2AR and below 100 nM against mGluR5.

Turning to `O=C(NC[C@H]1C[C@H](O)C1)c1ccc(C#Cc2ccccc2F)cc1` [Example 86, 4-((2-fluorophenyl)ethynyl)-N-(((1r,3r)-3-hydroxycyclobutyl)methyl)benzamide], the IC50 at human 5-HT2AR lay in the range of 1000 to 2000 nM; on mGluR5, 100 to 500 nM.

Take `O=C(NC[C@H]1CCOC1)c1ccc(C#Cc2ccc(F)cc2)cc1` [Example 101, (R)-4-((4-fluorophenyl)ethynyl)-N-((tetrahydrofuran-3-yl)methyl)benzamide]: the values for the IC50 at human 5-HT2AR and against mGluR5 were 100 to 500 nM and below 100 nM, respectively.

Regarding `CC1(CNC(=O)c2ccc(C#Cc3ccc(F)cc3)cc2)CCCO1` (stereo not shown) [Example 116, 4-((4-fluorophenyl)ethynyl)-N-((2-methyltetrahydrofuran-2-yl)methyl)benzamide], the IC50 against human 5-HT2AR and against mGluR5 was below 100 nM each time.

With `O=C(NC[C@H]1CCCO1)c1ccc(C#Cc2ccc(F)cc2F)cc1` [Example 114, (R)-4-((2,4-difluorophenyl)ethynyl)-N-((tetrahydrofuran-2-yl)methyl)benzamide], the IC50 at human 5-HT2AR and against mGluR5 was below 100 nM each time.

For `O=C(NCC1CCCCO1)c1ccc(C#Cc2ccc(F)cc2F)cc1` (stereo not shown) [Example 115, 4-((2,4-difluorophenyl)ethynyl)-N-((tetrahydro-2H-pyran-2-yl)methyl)benzamide], the IC50 was below 100 nM against human 5-HT2AR and 100 to 500 nM on mGluR5.

For `Cc1cc(C#Cc2ccc(C(=O)NCC3(NC4CC4)CCCC3)cc2)ccn1` [Example 21, N-((1-(cyclopropylamino)cyclopentyl)methyl)-4-((2-methylpyridin-4-yl)ethynyl)benzamide], the values for the half-inhibitory concentration (IC50) against human 5-HT2AR and against mGluR5 were 500 to 1000 nM and 1000 to 2000 nM, respectively.

On to `O=C(NC[C@@H]1CCOC1)c1ccc(C#Cc2ccc(F)cc2F)cc1` [Example 113, (S)-4-((2,4-difluorophenyl)ethynyl)-N-((tetrahydrofuran-3-yl)methyl)benzamide], for which the values for the IC50 on human 5-HT2AR and at mGluR5 were below 100 nM and 500 to 1000 nM, respectively.

For `O=C(NC[C@@H]1CCCO1)c1ccc(C#Cc2ccc(F)cc2F)cc1` [Example 117, (S)-4-((2,4-difluorophenyl)ethynyl)-N-((tetrahydrofuran-2-yl)methyl)benzamide], the values for the IC50 on human 5-HT2AR and against mGluR5 were below 100 nM and 500 to 1000 nM, respectively.

For `O=C(NC[C@@H]1CCOC1)c1ccc(C#Cc2ccc(F)cc2)cc1` [Example 102, (S)-4-((4-fluorophenyl)ethynyl)-N-((tetrahydrofuran-3-yl)methyl)benzamide], the IC50 against human 5-HT2AR was below 100 nM; against mGluR5, 100 to 500 nM.

In the case of `O=C(NCC1(NC2CC2)CCCCC1)c1ccc(C#Cc2ccc(F)cc2)cc1` [Example 19, N-((1-(cyclopropylamino)cyclohexyl)methyl)-4-((4-fluorophenyl)ethynyl)benzamide], the half-maximal inhibitory concentration (IC50) at human 5-HT2AR is below 100 nM; against mGluR5 it was 1000 to 2000 nM.

As to `O=C(NCC1(CC2CC2)CCOCC1)c1ccc(C#Cc2ccccc2F)cc1` [Example 29, N-((4-(cyclopropylmethyl)tetrahydro-2H-pyran-4-yl)methyl)-4-((2-fluorophenyl)ethynyl)benzamide], the IC50 at human 5-HT2AR and against mGluR5 was 100 to 500 nM each time.

With `CC1(CNC(=O)c2ccc(C#Cc3ccc(F)cc3)cc2)CCCCC1` [Example 104, 4-((4-fluorophenyl)ethynyl)-N-((1-methylcyclohexyl)methyl)benzamide], the values for the half-inhibitory concentration (IC50) against human 5-HT2AR and on mGluR5 were 1000 to 2000 nM and below 100 nM, respectively.

Turning to `O=C(NCC1(F)CCCCC1)c1ccc(C#Cc2ccc(F)cc2F)cc1` [Example 73, 4-((2,4-difluorophenyl)ethynyl)-N-((1-fluorocyclohexyl)methyl)benzamide], the IC50 against human 5-HT2AR is 1000 to 2000 nM; at mGluR5, below 100 nM.

As to `O=C(NC[C@H]1CCCOC1)c1ccc(C#Cc2ccc(F)cc2)cc1` [Example 99, (R)-4-((4-fluorophenyl)ethynyl)-N-((tetrahydro-2H-pyran-3-yl)methyl)benzamide], the IC50 is 100 to 500 nM against human 5-HT2AR and below 100 nM against mGluR5.

In the case of `CC1(C)CC(CNC(=O)c2ccc(C#Cc3ccccc3F)cc2)CCO1` (stereo not shown) [Example 67, N-((2,2-dimethyltetrahydro-2H-pyran-4-yl)methyl)-4-((2-fluorophenyl)ethynyl)benzamide], the values for the half-maximal inhibitory concentration (IC50) against human 5-HT2AR and against mGluR5 were 500 to 1000 nM and 100 to 500 nM, respectively.

Consider `O=C(NCC1(N2CCOCC2)CCCC1)c1ccc(C#Cc2ccccc2F)cc1` [Example 23, 4-((2-fluorophenyl)ethynyl)-N-((1-morpholinocyclopentyl)methyl)benzamide], for which the values for the 50% inhibitory concentration (IC50) on human 5-HT2AR and on mGluR5 were 100 to 500 nM and 500 to 1000 nM, respectively.

With `CC1CCC(CNC(=O)c2ccc(C#Cc3ccccc3F)cc2)(NC2CC2)CC1` (stereo not shown) [Example 26, N-((1-(cyclopropylamino)-4-methylcyclohexyl)methyl)-4-((2-fluorophenyl)ethynyl)benzamide], the figures for the 50% inhibitory concentration (IC50) against human 5-HT2AR and at mGluR5 were below 100 nM and 1000 to 2000 nM, respectively.

For the compound `O=C(NC[C@@H]1CCCOC1)c1ccc(C#Cc2ccc(F)cc2)cc1` [Example 100, (S)-4-((4-fluorophenyl)ethynyl)-N-((tetrahydro-2H-pyran-3-yl)methyl)benzamide], the results for the IC50 at human 5-HT2AR and against mGluR5 were 500 to 1000 nM and 100 to 500 nM, respectively.

With `O=C(NC[C@@H]1CCCOC1)c1ccc(C#Cc2ccccc2F)cc1` [Example 91, (S)-4-((2-fluorophenyl)ethynyl)-N-((tetrahydro-2H-pyran-3-yl)methyl)benzamide], the IC50 against human 5-HT2AR was 1000 to 2000 nM; against mGluR5 it was below 100 nM.

With `O=C(NCC1(NC2CC2)CCCC1)c1ccc(C#Cc2ccc(F)cc2)cc1` [Example 13, N-((1-(cyclopropylamino)cyclopentyl)methyl)-4-((4-fluorophenyl)ethynyl)benzamide], the figures for the IC50 against human 5-HT2AR and against mGluR5 were below 100 nM and 500 to 1000 nM, respectively.

With `COC(=O)CCC1(CNC(=O)c2ccc(C#Cc3ccccc3F)cc2)CCCCC1` [Example 59, methyl 3-(1-((4-((2-fluorophenyl)ethynyl)benzamido)methyl)cyclohexyl)propanoate], the concentration for half-maximal inhibition (IC50) is 500 to 1000 nM against human 5-HT2AR and 100 to 500 nM at mGluR5.

On to `CC1(CNC(=O)c2ccc(C#Cc3ccccc3F)cc2)CCC1` [Example 105, 4-((2-fluorophenyl)ethynyl)-N-((1-methylcyclobutyl)methyl)benzamide], for which the results for the 50% inhibitory concentration (IC50) on human 5-HT2AR and against mGluR5 were 500 to 1000 nM and below 100 nM, respectively.

Consider `O=C(NCC1(O)CCCCC1)c1ccc(C#Cc2ccccc2F)cc1` [Example 32, 4-((2-fluorophenyl)ethynyl)-N-((1-hydroxycyclohexyl)methyl)benzamide], for which the results for the IC50 at human 5-HT2AR and against mGluR5 were 500 to 1000 nM and below 100 nM, respectively.

Consider `O=C(NCC1CCOCC1)c1ccc(C#Cc2ccc(F)cc2)cc1` [Example 33, 4-((4-fluorophenyl)ethynyl)-N-((tetrahydro-2H-pyran-4-yl)methyl)benzamide], for which the IC50 against human 5-HT2AR lay within 1000 to 2000 nM; against mGluR5, 100 to 500 nM.

Turning to `CC1(CNC(=O)c2ccc(C#Cc3ccccc3F)cc2)CCOCC1` [Example 36, 4-((2-fluorophenyl)ethynyl)-N-((4-methyltetrahydro-2H-pyran-4-yl)methyl)benzamide], the 50% inhibitory concentration (IC50) was 500 to 1000 nM against human 5-HT2AR and below 100 nM against mGluR5.

Regarding `CC1(CNC(=O)c2ccc(C#Cc3ccccc3F)cc2)CCCO1` (stereo not shown) [Example 98, 4-((2-fluorophenyl)ethynyl)-N-((2-methyltetrahydrofuran-2-yl)methyl)benzamide], the IC50 against human 5-HT2AR was 500 to 1000 nM; against mGluR5, below 100 nM.

Consider `O=C(NCC1(F)COC1)c1ccc(C#Cc2ccc(F)cc2F)cc1` [Example 123, 4-((2,4-difluorophenyl)ethynyl)-N-((3-fluorooxetan-3-yl)methyl)benzamide], for which the IC50 on human 5-HT2AR was below 100 nM; on mGluR5 it was 500 to 1000 nM.

For `O=C(O)CCC1(CNC(=O)c2ccc(C#Cc3ccccc3F)cc2)CCOCC1` [Example 60, 3-(4-((4-((2-fluorophenyl)ethynyl)benzamido)methyl)tetrahydro-2H-pyran-4-yl)propanoic acid], the IC50 against human 5-HT2AR and against mGluR5 was 500 to 1000 nM throughout.
